Laboratory results published in paper PMC6155626 (Molecules : A Journal of Synthetic Chemistry and Natural …, 2016).
≈ marks a conversion by molar mass, not a printed value.

Key:
[1] = tested on: Xanthomonas oryzae pv. oryzae; assay: microbe, parasite or virus in culture; assay type: cell-based; conditions: for EC50 / inhibition at 100 µg/mL / inhibition at 200 µg/mL: Xanthomonas oryzae; for inhibition at 100 µg/mL: read-out: Inhibition rate, X. oryzae, 100 μg/mL, average of three replicates; for inhibition at 200 µg/mL: read-out: Inhibition rate, X. oryzae, 200 μg/mL, average of three replicates; for Inhibition rate: X. oryzae, 200 μg/mL, average of three replicates
[2] = tested on: Ralstonia solanacearum; assay: microbe, parasite or virus in culture; assay type: cell-based; conditions: Ralstonia solanacearum; for EC50: R. solanacearum; for inhibition at 100 µg/mL / inhibition at 200 µg/mL: read-out: Inhibition rate
[3] = tested on: Xanthomonas axonopodis pv. citri; assay: microbe, parasite or virus in culture; assay type: cell-based; conditions: Xanthomonas axonopodis; for inhibition at 100 µg/mL / inhibition at 200 µg/mL: read-out: Inhibition rate

CS(=O)(=O)c1nnc(COc2ccc(Br)cc2)o1 [Compound 5I-3, 2-((4-Bromophenoxy)methyl)-5-(methylsulfonyl)-1,3,4-oxadiazole]
EC50 [1]: 1.67 ± 0.22 µg/mL (≈ 5.01 µM)
inhibition at 100 µg/mL [1]: 100%
inhibition at 200 µg/mL [1]: 100%
EC50 [2]: 19.6 ± 0.98 µg/mL (≈ 58.9 µM)
inhibition at 100 µg/mL [2]: 100%
inhibition at 200 µg/mL [2]: 100%
EC50 [3]: 24.9 ± 2.52 µg/mL (≈ 74.7 µM)
inhibition at 100 µg/mL [3]: 90%
inhibition at 200 µg/mL [3]: 91%
melting point: 97 to 99 °C

Cc1cc(Cl)ccc1OCc1nnc(S(C)(=O)=O)o1 [Compound 5I-5, 2-((4-Chloro-2-methylphenoxy)methyl)-5-(methylsulfonyl)-1,3,4-oxadiazole]
EC50 [1]: 1.67 ± 0.16 µg/mL (≈ 5.52 µM)
inhibition at 100 µg/mL [1]: 100%
inhibition at 200 µg/mL [1]: 100%
EC50 [2]: 14.9 ± 1.27 µg/mL (≈ 49.3 µM)
inhibition at 100 µg/mL [2]: 100%
inhibition at 200 µg/mL [2]: 100%
EC50 [3]: 96.8 ± 5.78 µg/mL (≈ 320 µM)
inhibition at 100 µg/mL [3]: 54%
inhibition at 200 µg/mL [3]: 100%

CS(=O)(=O)c1nnc(COc2ccccc2)o1 [Compound 5I-6, 2-(Methylsulfonyl)-5-(phenoxymethyl)-1,3,4-oxadiazole]
EC50 [1]: 1.86 ± 0.23 µg/mL (≈ 7.32 µM)
inhibition at 100 µg/mL [1]: 100%
inhibition at 200 µg/mL [1]: 100%
EC50 [2]: 13.6 ± 2.12 µg/mL (≈ 53.3 µM)
inhibition at 100 µg/mL [2]: 100%
inhibition at 200 µg/mL [2]: 100%
EC50 [3]: 85 ± 4.32 µg/mL (≈ 334 µM)
inhibition at 100 µg/mL [3]: 57%
inhibition at 200 µg/mL [3]: 88%

CCS(=O)(=O)c1nnc(COc2ccc(F)cc2)o1 [Compound 5I-7, 2-(Ethylsulfonyl)-5-((4-fluorophenoxy)methyl)-1,3,4-oxadiazole]
EC50 [1]: 0.52 ± 0.16 µg/mL (≈ 1.82 µM)
inhibition at 100 µg/mL [1]: 100%
inhibition at 200 µg/mL [1]: 100%
EC50 [2]: 7.75 ± 1.01 µg/mL (≈ 27.1 µM)
inhibition at 100 µg/mL [2]: 99%
inhibition at 200 µg/mL [2]: 100%
EC50 [3]: 52.2 ± 2.14 µg/mL (≈ 182 µM)
inhibition at 100 µg/mL [3]: 53%
inhibition at 200 µg/mL [3]: 65%

CCS(=O)(=O)c1nnc(COc2ccc(Cl)cc2Cl)o1 [Compound 5I-8, 2-((2,4-Dichlorophenoxy)methyl)-5-(ethylsulfonyl)-1,3,4-oxadiazole]
inhibition at 100 µg/mL [1]: 87%
inhibition at 200 µg/mL [1]: 100%
inhibition at 100 µg/mL [2]: 43%
inhibition at 200 µg/mL [2]: 97%
inhibition at 100 µg/mL [3]: 36%
inhibition at 200 µg/mL [3]: 62%

O=S(=O)(Cc1ccccc1)c1nnc(COc2ccc(F)cc2)o1 [Compound 5I-9, 2-(Benzylsulfonyl)-5-((4-fluorophenoxy)methyl)-1,3,4-oxadiazole]
inhibition at 100 µg/mL [1]: 100%
inhibition at 200 µg/mL [1]: 100%
inhibition at 100 µg/mL [2]: 25%
inhibition at 200 µg/mL [2]: 33%
inhibition at 100 µg/mL [3]: 50%
inhibition at 200 µg/mL [3]: 72%
melting point: 94 to 96 °C

O=S(=O)(Cc1ccccc1)c1nnc(COc2ccc(Cl)cc2)o1 [Compound 5I-10, 2-(Benzylsulfonyl)-5-((4-chlorophenoxy)methyl)-1,3,4-oxadiazole]
inhibition at 100 µg/mL [1]: 48%
inhibition at 200 µg/mL [1]: 90%
inhibition at 100 µg/mL [2]: 19%
inhibition at 200 µg/mL [2]: 24%
inhibition at 100 µg/mL [3]: 62%
inhibition at 200 µg/mL [3]: 74%
melting point: 126 to 128 °C

O=S(=O)(Cc1ccccc1)c1nnc(COc2ccc(Br)cc2)o1 [Compound 5I-11, 2-(Benzylsulfonyl)-5-((4-bromophenoxy)methyl)-1,3,4-oxadiazole]
inhibition at 100 µg/mL [1]: 38%
inhibition at 200 µg/mL [1]: 56%
inhibition at 100 µg/mL [2]: 13%
inhibition at 200 µg/mL [2]: 18%
inhibition at 100 µg/mL [3]: 16%
inhibition at 200 µg/mL [3]: 11%
melting point: 142 to 143 °C

O=S(=O)(Cc1ccccc1)c1nnc(COc2ccc(Cl)cc2Cl)o1 [Compound 5I-12, 2-(Benzylsulfonyl)-5-((2,4-dichlorophenoxy)methyl)-1,3,4-oxadiazole]
inhibition at 100 µg/mL [1]: 70%
inhibition at 200 µg/mL [1]: 98%
inhibition at 100 µg/mL [2]: 20%
inhibition at 200 µg/mL [2]: 33%
inhibition at 100 µg/mL [3]: 23%
inhibition at 200 µg/mL [3]: 26%
melting point: 121 to 122 °C

Cc1cc(Cl)ccc1OCc1nnc(S(=O)(=O)Cc2ccccc2)o1 [Compound 5I-13, 2-(Benzylsulfonyl)-5-((4-chloro-2-methylphenoxy)methyl)-1,3,4-oxadiazole]
inhibition at 100 µg/mL [1]: 13%
inhibition at 200 µg/mL [1]: 33%
inhibition at 100 µg/mL [2]: 8%
inhibition at 200 µg/mL [2]: 15%
inhibition at 100 µg/mL [3]: 0%
inhibition at 200 µg/mL [3]: 7%
melting point: 144 to 145 °C

O=S(=O)(Cc1ccccc1)c1nnc(COc2ccccc2)o1 [Compound 5I-14, 2-(Benzylsulfonyl)-5-(phenoxymethyl)-1,3,4-oxadiazole]
inhibition at 100 µg/mL [1]: 78%
inhibition at 200 µg/mL [1]: 95%
inhibition at 100 µg/mL [2]: 37%
inhibition at 200 µg/mL [2]: 69%
inhibition at 100 µg/mL [3]: 53%
inhibition at 200 µg/mL [3]: 76%
melting point: 95 to 96 °C

CS(=O)(=O)c1nnc(COc2ccc(F)cc2)s1 [Compound 5II-1, 2-((4-Fluorophenoxy)methyl)-5-(methylsulfonyl)-1,3,4-thiadiazole]
Inhibition rate [1]: 99%
inhibition at 100 µg/mL [1]: 92%
inhibition at 200 µg/mL [1]: 84 to 99%
inhibition at 100 µg/mL [2]: 49%
inhibition at 200 µg/mL [2]: 50%
inhibition at 100 µg/mL [3]: 36%
inhibition at 200 µg/mL [3]: 40%
melting point: 107 to 109 °C

CS(=O)(=O)c1nnc(COc2ccc(Cl)cc2)s1 [Compound 5II-2, 2-((4-Chlorophenoxy)methyl)-5-(methylsulfonyl)-1,3,4-thiadiazole]
Inhibition rate [1]: 84%
inhibition at 100 µg/mL [1]: 73%
inhibition at 200 µg/mL [1]: 84 to 99%
inhibition at 100 µg/mL [2]: 45%
inhibition at 200 µg/mL [2]: 56%
inhibition at 100 µg/mL [3]: 16%
inhibition at 200 µg/mL [3]: 27%
melting point: 119 to 120 °C

CS(=O)(=O)c1nnc(COc2ccc(Br)cc2)s1 [Compound 5II-3, 2-((4-Bromophenoxy)methyl)-5-(methylsulfonyl)-1,3,4-thiadiazole]
inhibition at 100 µg/mL [1]: 28%
inhibition at 200 µg/mL [1]: 30%
inhibition at 100 µg/mL [2]: 7%
inhibition at 200 µg/mL [2]: 26%
inhibition at 100 µg/mL [3]: 18%
inhibition at 200 µg/mL [3]: 25%
melting point: 114 to 115 °C

CS(=O)(=O)c1nnc(COc2ccc(Cl)cc2Cl)s1 [Compound 5II-4, 2-((2,4-Dichlorophenoxy)methyl)-5-(methylsulfonyl)-1,3,4-thiadiazole]
inhibition at 100 µg/mL [1]: 18%
inhibition at 200 µg/mL [1]: 16%
inhibition at 100 µg/mL [2]: 15%
inhibition at 200 µg/mL [2]: 18%
inhibition at 100 µg/mL [3]: 20%
inhibition at 200 µg/mL [3]: 23%
melting point: 160 to 162 °C

Cc1cc(Cl)ccc1OCc1nnc(S(C)(=O)=O)s1 [Compound 5II-5, 2-((4-Chloro-2-methylphenoxy)methyl)-5-(methylsulfonyl)-1,3,4-thiadiazole]
inhibition at 100 µg/mL [1]: 16%
inhibition at 200 µg/mL [1]: 42%
inhibition at 100 µg/mL [2]: 8%
inhibition at 200 µg/mL [2]: 9%
inhibition at 100 µg/mL [3]: 24%
inhibition at 200 µg/mL [3]: 25%
melting point: 160 to 161 °C

CCS(=O)(=O)c1nnc(COc2ccc(F)cc2)s1 [Compound 5II-6, 2-(Ethylsulfonyl)-5-((4-fluorophenoxy)methyl)-1,3,4-thiadiazole]
inhibition at 100 µg/mL [1]: 55%
inhibition at 200 µg/mL [1]: 65%
inhibition at 100 µg/mL [2]: 12%
inhibition at 200 µg/mL [2]: 7%
inhibition at 100 µg/mL [3]: 18%
inhibition at 200 µg/mL [3]: 15%
melting point: 89 to 90 °C

CCS(=O)(=O)c1nnc(COc2ccc(Cl)cc2Cl)s1 [Compound 5II-7, 2-((2,4-Dichlorophenoxy)methyl)-5-(ethylsulfonyl)-1,3,4-thiadiazole]
inhibition at 100 µg/mL [1]: 13%
inhibition at 200 µg/mL [1]: 20%
inhibition at 100 µg/mL [2]: 0%
inhibition at 200 µg/mL [2]: 0%
inhibition at 100 µg/mL [3]: 6%
inhibition at 200 µg/mL [3]: 32%
melting point: 127 to 128 °C

O=S(=O)(Cc1ccccc1)c1nnc(COc2ccc(F)cc2)s1 [Compound 5II-8, 2-(Benzylsulfonyl)-5-((4-fluorophenoxy)methyl)-1,3,4-thiadiazole]
inhibition at 100 µg/mL [1]: 8%
inhibition at 200 µg/mL [1]: 24%
inhibition at 100 µg/mL [2]: 10%
inhibition at 200 µg/mL [2]: 30%
inhibition at 100 µg/mL [3]: 21%
inhibition at 200 µg/mL [3]: 24%
melting point: 132 to 134 °C

O=S(=O)(Cc1ccccc1)c1nnc(COc2ccc(Cl)cc2)s1 [Compound 5II-9, 2-(Benzylsulfonyl)-5-((4-chlorophenoxy)methyl)-1,3,4-thiadiazole]
inhibition at 100 µg/mL [1]: 14%
inhibition at 200 µg/mL [1]: 19%
inhibition at 100 µg/mL [2]: 18%
inhibition at 200 µg/mL [2]: 17%
inhibition at 100 µg/mL [3]: 23%
inhibition at 200 µg/mL [3]: 14%
melting point: 140 to 141 °C

O=S(=O)(Cc1ccccc1)c1nnc(COc2ccc(Br)cc2)s1 [Compound 5II-10, 2-(Benzylsulfonyl)-5-((4-bromophenoxy)methyl)-1,3,4-thiadiazole]
inhibition at 100 µg/mL [1]: 0%
inhibition at 200 µg/mL [1]: 10%
inhibition at 100 µg/mL [2]: 1%
inhibition at 200 µg/mL [2]: 11%
inhibition at 100 µg/mL [3]: 8%
inhibition at 200 µg/mL [3]: 5%
melting point: 147 to 148 °C

O=S(=O)(Cc1ccccc1)c1nnc(COc2ccc(Cl)cc2Cl)s1 [Compound 5II-11, 2-(Benzylsulfonyl)-5-((2,4-dichlorophenoxy)methyl)-1,3,4-thiadiazole]
inhibition at 100 µg/mL [1]: 14%
inhibition at 200 µg/mL [1]: 37%
inhibition at 100 µg/mL [2]: 26%
inhibition at 200 µg/mL [2]: 27%
inhibition at 100 µg/mL [3]: 32%
inhibition at 200 µg/mL [3]: 38%
melting point: 124 to 125 °C

Cc1cc(Cl)ccc1OCc1nnc(S(=O)(=O)Cc2ccccc2)s1 [Compound 5II-12, 2-(Benzylsulfonyl)-5-((4-chloro-2-methylphenoxy)methyl)-1,3,4-thiadiazole]
inhibition at 100 µg/mL [1]: 0%
inhibition at 200 µg/mL [1]: 5%
inhibition at 100 µg/mL [2]: 0%
inhibition at 200 µg/mL [2]: 0%
inhibition at 100 µg/mL [3]: 33%
inhibition at 200 µg/mL [3]: 10%
melting point: 125 to 126 °C
